Assay results published in patent US10906946B2, “Thrombin inhibitors” (priority 2015, dated 2021).

Experiments:
blood = assay: Anti-coagulation effect of peptides in blood tubes (visual clot formation); parameters: species or system human (healthy volunteers); conditions: room temperature
Experimental: (§1) Individual peptides are dissolved in phosphate buffered saline to prepare 10× peptide solutions (ie. concentrations of peptides are 10 times higher than the final concentrations at which they are to be tested). 0.3 ml of the 10× peptide solutions are placed in blood tubes without any additives. Blood was drawn from healthy volunteers using syringes and immediately transferred to a 50 ml conical centrifuge tube (Falcon tube) before pipetting 2.7 ml of the blood into blood tubes with peptide solutions. Final concentrations of peptides are as stated in Table 5 and 6.
Blood tubes with various peptides at different concentrations were left standing at room temperature until tested at designated times. At different time points, tubes were inverted several times and visually inspected for insoluble materials as indications of clot formation.

thrombin = target: T1, thrombin (Homo sapiens, UniProt P00734); assay: Cleavage of peptide by thrombin (RP-HPLC, ESI-MS); type: biochemical; conditions: peptide incubated with thrombin (30:1)
T1 construct: residues in the termini of the light chain; and in the autolysis loop and C-terminus of the heavy chain; purchased Chemo-Sero-Therapeutic Research Institute (Kaketsuken, Japan), as a gift, not bought
Experimental: A. Evaluation of avathrin cleavage by thrombin by HPLC chromatograms. Avathrin (150 μM) was incubated with thrombin (5 μM) for various times and the reaction mixtures were separated using RP-HPLC; the masses of the cleavage products were analyzed with ESI-MS. At 0 min (upper panel), a single peak corresponding to full length avathrin (mass 3139 Da) was identified. At 120 min (middle panel), two new peaks corresponding to N-terminal cleavage product (^1[…]^10 of SEQ ID NO: 1; mass 982 Da) and C-terminal cleavage product ([…] (SEQ ID NO: 4); mass 2176 Da) were identified in addition to avathrin peak. At 600 min (lower panel), two peaks corresponding to the N- and C-terminal cleaved products were observed while avathrin peak was not observed, indicating complete cleavage. B. Time-dependent cleavage of avathrin by thrombin. Relative percentages of avathrin, its N- and C-terminal cleavage products were quantified by calculating areas under the curve. Each data point is the mean±S.D. of at least three independent experiments. C. Effect of thrombin cleavage on inhibitory properties of avathrin. Avathrin was incubated with thrombin (0.81 nM) for up to 36 h, and assayed at different time points for its ability to inhibit thrombin amidolytic activity on the chromogenic substrate S2238. […]
Thrombin amidolytic activity assays for all peptides were performed in 96-wells microtiter plates in 50 mM Tris buffer (pH 7.4) containing 100 mM NaCl and 1 mg/ml bovine serum albumin. […] The rates of formation of p-nitroaniline were followed by measuring the absorbance at 405 nm for 10 min with a Tecan InfinitePro M200 microplate reader from Tecan (Männedorf, Switzerland). […] To measure the inhibitory constants, different concentrations of S2238 were used and the residual velocities were determined using the Morrison's tight binding equation. Inhibition of thrombin fibrinogenolytic activity of peptides were tested by measuring absorbance at 650 nm using a Sunrise microplate reader from Tecan (Männedorf, Switzerland) as described previously [Koh C Y, et al., J Biol Chem 282: 29101-13 (2007)]. […] Effects of avathrin on the amidolytic activities of these serine proteases were determined using respective chromogenic substrates. […] After different incubation times, reactions were quenched with 1% TFA (pH 1.8) and loaded onto a Jupiter Proteo column (4 μm, 90 Å, 100×1.0 mm) attached to a Dionex nano-HPLC system from Thermo Fisher Scientific (Waltham, Mass., USA) and eluted using an acetonitrile gradient with 0.05% TFA and 99.95% MilliQ water as eluent A and 0.05% TFA, 19.95% MilliQ water and 80% ACN as eluent B. Masses of all peaks were measured to identify cleavage products, which were subsequently quantified by integrating the peaks and calculating the area under the curves. […]

[1] = tested on: platelets (ADP-induced platelet aggregation); assay: Preservation of platelet function in blood tubes (Multiplate, ADP-induced platelet aggregation); type: cell-based, human (healthy volunteers); conditions: ADP agonist
Experimental: as §1
Blood tubes with various peptides at different concentrations were left standing at room temperature until tested at designated times. At different time points, tubes were inverted several times and blood samples were taken out for platelet aggregation tests using a Multiplate® Platelet aggregometer with adenosine diphosphate (ADP) as agonist according to manufacturer's recommended protocols.

CC[C@H](C)[C@H](NC(=O)[C@H](C)NC(=O)[C@H](CCC(=O)O)NC(=O)[C@H](Cc1ccccc1)NC(=O)[C@H](CC(=O)O)NC(=O)[C@H](Cc1ccccc1)NC(=O)[C@@H]1CCCN1C(=O)[C@@H]1CCCN1C(=O)[C@H](C)NC(=O)[C@@H](NC(=O)[C@H](CCCCN)NC(=O)[C@H](Cc1c[nH]cn1)NC(=O)[C@H](CCSC)NC(=O)[C@H](CCCCN)NC(=O)[C@@H]1CCCN1C(=O)[C@H](CCC(=O)O)NC(=O)[C@H](C)NC(=O)[C@@H](NC(=O)[C@H](CC(=O)O)NC(=O)CNC(=O)[C@H](CCC(N)=O)NC(=O)[C@H](CC(=O)O)NC(=O)[C@@H](N)CO)C(C)C)[C@@H](C)O)C(=O)N1CCC[C@H]1C(=O)N[C@@H](CCC(=O)O)C(=O)N[C@@H](CCC(=O)O)C(=O)N[C@@H](Cc1ccc(O)cc1)C(=O)N[C@@H](CC(C)C)C(=O)N[C@@H](CC(=O)O)C(=O)N[C@@H](CC(=O)O)C(=O)N[C@@H](CCC(=O)O)C(=O)N[C@@H](CO)C(=O)O [Variegin, reference compound]
Time to observe clot formation (blood; final concentration 75 micromolar): 46 h
Time to observe clot formation (blood; final concentration 150 micromolar): 52 to 66 h
Time to observe clot formation (blood; final concentration 300 micromolar): 52 to 66 h
time to complete cleavage by thrombin (thrombin): 4 h
Multiplate AUC (U) ([1]; 1.5 h, peptide 150 μM): 65.2 U
Multiplate AUC (U) ([1]; 1.5 h, peptide 300 μM): 52.3 U
Multiplate AUC (U) ([1]; 4 h, peptide 150 μM): 48.6 U
Multiplate AUC (U) ([1]; 4 h, peptide 300 μM): 33.9 U
Multiplate AUC (U) ([1]; 24 h, peptide 150 μM): 41.9 U
Multiplate AUC (U) ([1]; 24 h, peptide 300 μM): 40.5 U
Multiplate AUC (U) ([1]; 48 h, peptide 300 μM): 18.3 U
